Results on six compounds are retold here after patent US10683278B2 (JINAN UNIVERSITY, priority 2015, dated 2020).

Where two headings read alike, the source gives them in different places.

One data set concerns the target T1, AXL kinase (Homo sapiens, UniProt P30530).
T1 construct: purchased Invitrogen PV4803
T1 sequence (P30530 26-894): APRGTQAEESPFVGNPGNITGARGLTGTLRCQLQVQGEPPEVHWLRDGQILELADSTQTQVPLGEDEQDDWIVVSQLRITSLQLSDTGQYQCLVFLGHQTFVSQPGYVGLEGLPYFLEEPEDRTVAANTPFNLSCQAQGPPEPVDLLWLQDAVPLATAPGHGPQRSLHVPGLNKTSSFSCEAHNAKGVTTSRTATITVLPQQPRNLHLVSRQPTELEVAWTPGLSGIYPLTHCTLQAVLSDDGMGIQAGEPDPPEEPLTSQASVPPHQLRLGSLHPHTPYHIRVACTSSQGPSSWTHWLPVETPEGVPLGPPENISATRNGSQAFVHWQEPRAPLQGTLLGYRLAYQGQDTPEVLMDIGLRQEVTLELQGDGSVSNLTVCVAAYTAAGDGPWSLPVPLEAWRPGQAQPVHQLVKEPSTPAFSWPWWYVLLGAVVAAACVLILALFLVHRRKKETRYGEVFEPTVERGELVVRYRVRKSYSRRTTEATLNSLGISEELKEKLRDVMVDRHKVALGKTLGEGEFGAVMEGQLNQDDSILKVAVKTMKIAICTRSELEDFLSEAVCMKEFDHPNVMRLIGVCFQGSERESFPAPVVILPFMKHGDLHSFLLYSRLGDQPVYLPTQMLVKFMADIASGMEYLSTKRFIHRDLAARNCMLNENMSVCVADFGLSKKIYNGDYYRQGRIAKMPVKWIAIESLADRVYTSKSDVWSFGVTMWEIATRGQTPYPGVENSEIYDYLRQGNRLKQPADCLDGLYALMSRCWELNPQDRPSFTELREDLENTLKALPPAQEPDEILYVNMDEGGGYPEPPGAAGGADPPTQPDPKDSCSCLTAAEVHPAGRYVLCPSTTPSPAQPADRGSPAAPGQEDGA
As to the kind of experiment: IC50 test on AXL kinase (Z′-LYTE FRET kinase activity detection). The format is biochemical. The settings on record: for IC50: Z′-LYTE FRET peptide assay, 1 h reaction; for inhibitory activity on AXL kinase: competitive experiment with ATP, in words. The method in brief: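 AXL kinase with Z′-LYTE Tyr 2 FRET peptide, ATP and graded compound concentrations reacted 1 h, then site-specific protease cleaved non-phosphorylated peptide for 1 h. Emission at 445 and 520 nm with 400 nm excitation gave the IC50.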

Data set [1] is described as follows: In vivo pharmacokinetic and bioavailability experiments of rats. Further details: species or system SD rats. Particulars: for bioavailability: po, 25 mg/kg, read-out: F (oral bioavailability); for pharmacokinetic parameter, overall judgement: hydrochlorides, in words. The procedure: Pharmacokinetic and bioavailability experiments of rats. SD rats were administered orally (25 mg/kg) and intravenously (2.5 to 5 mg/kg) at a single dose. Animal blood samples were taken at appropriate time points after administration, heparin was added as anticoagulant, and same were centrifuged at 8000 rpm/min for 6 minutes, the supernatant was then taken and stored at −20° C. for HPLC-MS analysis. The proteins in blood samples were precipitated with acetonitrile at 12000 rpm for 10 min, and the supernatant was used for HPCL-MS analysis. Data were fit using DAS2.0 to obtain compartmental model and non-compartmental model parameters, respectively. The oral bioavailability of each compound was calculated according to AUC data.

The mark [2] stands for this setting: Sprague-Dawley, rat, plasma, SD rats, Po, 25 mg/kg single dose.
Where [3] appears, read: Sprague-Dawley, rat, plasma, SD rats, Po, 25 mg/kg single dose, read-out: Cmax.
The mark [4] stands for this setting: Sprague-Dawley, rat, plasma, SD rats, iv, 5 mg/kg single dose.
Where [5] appears, read: Sprague-Dawley, rat, plasma, SD rats, iv, 5 mg/kg single dose, read-out: Cmax.
Setting [6] is: SD rats, Po, 25 mg/kg single dose.
Setting [7] is: SD rats, iv, 2.5 mg/kg single dose.

Consider `COc1cc2ncnc(Oc3ccc(NC(=O)c4cn5c6c(c(N7CCC(O)CC7)c(F)cc6c4=O)CCC5C)cc3F)c2cc1OC` (stereo not shown) [TL4830031, N-(4-((6,7-dimethoxyquinazolin-4-yl)oxy)-3-fluorophenyl)-9-fluoro-8-(4-hydroxypiperidin-1-yl)-5-methyl-1-oxo-1,5,6,7-tetrahydropyrido[3,2,1-ij]quinoline-2-carboxamide], for which the IC50 against AXL kinase was 28 nM. In data set [1] (Sprague-Dawley, rat, plasma), the bioavailability worked out at 12.1%. In data set [1] (setting [2]), the AUC(0-inf) worked out at 25900 ng·h/mL, the AUC(0-t) was determined as 24400 ng·h/mL and the half-life is 5.68 h. For the same compound, in data set [1] (setting [3]), the Cmax amounted to 2390 ng/mL. In data set [1] (setting [4]), this compound had an AUC(0-inf) of 20700 ng·h/mL, an AUC(0-t) of 20300 ng·h/mL, a clearance of 2 mL/min/kg and a half-life of 4.26 h. The Cmax in data set [1] (setting [5]) was determined as 4360 ng/mL.

On AXL kinase, `CCc1ccc2c(c1)c(=O)c(C(=O)Nc1ccc(Oc3ncnc4[nH]cc(-c5ccccc5)c34)c(F)c1)c(C)n2C` [TL4800075, 6-ethyl-N-(3-fluoro-4-((5-phenyl-7H-pyrrolo[2,3-d]pyrimidin-4-yl)oxy)phenyl)-1,2-dimethyl-4-oxo-1,4-dihydroquinoline-3-carboxamide] had a half-inhibitory concentration (IC50) of 6 nM. Further, in data set [1] (setting [6]), the “AUC(0-∞)” value came out at 505.71 ng·h/mL, the Cmax was determined as 121.74 ng/mL and the T1/2 was 3.72 h. Moreover, in data set [1] (setting [7]), the “AUC(0-∞)” value stood at 3029.64 ng·h/mL, the CL turned out to be 13.8 mL/min/kg, the Cmax was 2910.13 ng/mL and the T1/2 is 0.87 h. Moreover, the bioavailability in data set [1] (Sprague-Dawley, rat, plasma) is 1.23%. Moreover, the AUC(0-t) in data set [1] (setting [2]) came to 371 ng·h/mL. In data set [1] (Sprague-Dawley, rat, plasma, SD rats, iv, 2.5 mg/kg single dose), the AUC(0-t) was found to be 3020 ng·h/mL.

Turning to `CCc1ccc2c(c1)c(=O)c(C(=O)Nc1ccc(Oc3ncnc4cc(OCCCN5CCN(C)CC5)c(OC)cc34)c(F)c1)c(C)n2C` [GDL5000138, 6-ethyl-N-(3-fluoro-4-(6-methoxy-7-(3-(4-methylpiperazin-1-yl)propoxy)quinazolin-4-yloxy)phenyl)-1,2-dimethyl-4-oxo-1,4-dihydroquinoline-3-carboxamide], at AXL kinase, it took 3 nM to reach half-maximal inhibition (IC50) and the “inhibitory activity on AXL kinase” value is reported as “strong inhibitory activity”. Moreover, in data set [1] (SD rats), the “pharmacokinetic parameter, overall judgement” value (“pharmacokinetic parameter” below) was “appropriate pharmacokinetic parameter”. The bioavailability in data set [1] (Sprague-Dawley, rat, plasma) is 27.5%. In data set [1] (setting [2]), this compound showed an AUC(0-inf) of 31300 ng·h/mL, an AUC(0-t) of 11300 ng·h/mL and a half-life of 34.8 h. Further, the peak concentration (Cmax) in data set [1] (setting [3]) came to 656 ng/mL. In addition, in data set [1] (setting [4]), the AUC(0-inf) was found to be 8530 ng·h/mL, the AUC(0-t) was determined as 8220 ng·h/mL, the clearance was 9.83 mL/min/kg and the half-life is 5.72 h. In addition, in data set [1] (setting [5]), the Cmax was determined as 3560 ng/mL.

Regarding `CCc1ccc2c(c1)c(=O)c(C(=O)Nc1ccc(Oc3ncnc4cc(OCCCN5CCOCC5)c(OC)cc34)c(F)c1)c(C)n2C` [GDL5000123, 6-ethyl-N-(3-fluoro-4-((6-methoxy-7-(3-morpholinopropoxy)quinazolin-4-yl)oxy)phenyl)-1,2-dimethyl-4-oxo-1,4-dihydroquinoline-3-carboxamide], on AXL kinase, the half-maximal inhibitory concentration (IC50) was 8 nM and the “inhibitory activity on AXL kinase” value is recorded as “strong inhibitory activity”. For the same compound, in data set [1] (SD rats), the “pharmacokinetic parameter” value was “appropriate pharmacokinetic parameter”. In addition, in data set [1] (Sprague-Dawley, rat, plasma), the bioavailability turned out to be 23.5%. Besides, in data set [1] (setting [2]), the AUC(0-inf) was 118000 ng·h/mL, the AUC(0-t) is 51500 ng·h/mL and the half-life was 26.7 h. In addition, the maximum concentration (Cmax) in data set [1] (setting [3]) is 3080 ng/mL. Besides, in data set [1] (setting [4]), the area under the curve AUC(0-inf) was determined as 47700 ng·h/mL, the area under the curve AUC(0-t) stood at 43800 ng·h/mL, the clearance was 1.83 mL/min/kg and the half-life was 6.7 h. Further, the Cmax in data set [1] (setting [5]) was 6480 ng/mL.

Regarding `CCc1ccc2c(c1)c(=O)c(C(=O)Nc1ccc(Oc3ncnc4cc(OCCN(C)C)c(OC)cc34)c(F)c1)c(C)n2C` [GDL5000128, N-(4-(7-(2-(dimethylamino)ethoxy)-6-methoxyquinazolin-4-yloxy)-3-fluorophenyl)-6-ethyl-1,2-dimethyl-4-oxo-1,4-dihydroquinoline-3-carboxamide], at AXL kinase, the half-inhibitory concentration (IC50) stood at 6 nM and the “inhibitory activity on AXL kinase” value is “strong inhibitory activity”. The “pharmacokinetic parameter” value in data set [1] (SD rats) was “appropriate pharmacokinetic parameter”. Besides, the bioavailability in data set [1] (Sprague-Dawley, rat, plasma) amounted to 44.3%. In data set [1] (setting [2]), this compound had an AUC(0-inf) of 25600 ng·h/mL, an AUC(0-t) of 25100 ng·h/mL and a half-life of 4.59 h. Besides, in data set [1] (setting [3]), the Cmax is 4630 ng/mL. In data set [1] (setting [4]), the AUC(0-inf) is 11600 ng·h/mL, the AUC(0-t) amounted to 11300 ng·h/mL, the clearance is 7.5 mL/min/kg and the half-life was 5.82 h. Also, in data set [1] (setting [5]), the Cmax worked out at 16800 ng/mL.

In the case of `CCc1ccc2c(c1)c(=O)c(C(=O)Nc1ccc(Oc3ncnc4cc(OC)c(OC)cc34)c(F)c1)c(C)n2C` [TL4800191, N-(4-(6,7-dimethoxyquinazolin-4-yloxy)-3-fluorophenyl)-6-ethyl-1,2-dimethyl-4-oxo-1,4-dihydroquinoline-3-carboxamide], at AXL kinase, the IC50 was determined as 4 nM. Also, the “F (oral bioavailability)” value in data set [1] (SD rats, Po 25 mg/kg vs iv 2.5 to 5 mg/kg, calculated according to AUC data) is on record as 14.9%. In data set [1] (setting [6]), the “AUC(0-∞)” value was found to be 31505 ng·h/mL, the CL came to 15 mL/min/kg, the Cmax worked out at 1967 ng/mL and the T1/2 is 10.2 h. In addition, in data set [1] (setting [2]), the AUC(0-t) came out at 31300 ng·h/mL. In data set [1] (setting [4]), this compound showed an area under the curve AUC(0-inf) of 42300 ng·h/mL, an AUC(0-t) of 30500 ng·h/mL, a clearance of 1.67 mL/min/kg and a half-life of 25.2 h. Besides, in data set [1] (setting [5]), the Cmax worked out at 1170 ng/mL.
